Where two headings read alike, the source gives them in different places.

The target in one test is T1, AR (h) (Homo sapiens, UniProt P10275, T878A).
T1 construct: AR (h) LNCaP cells [3H]methyltrienolone; host or cells: LNCaP cells (cytosol)
T1 sequence (P10275 1-920 T878A): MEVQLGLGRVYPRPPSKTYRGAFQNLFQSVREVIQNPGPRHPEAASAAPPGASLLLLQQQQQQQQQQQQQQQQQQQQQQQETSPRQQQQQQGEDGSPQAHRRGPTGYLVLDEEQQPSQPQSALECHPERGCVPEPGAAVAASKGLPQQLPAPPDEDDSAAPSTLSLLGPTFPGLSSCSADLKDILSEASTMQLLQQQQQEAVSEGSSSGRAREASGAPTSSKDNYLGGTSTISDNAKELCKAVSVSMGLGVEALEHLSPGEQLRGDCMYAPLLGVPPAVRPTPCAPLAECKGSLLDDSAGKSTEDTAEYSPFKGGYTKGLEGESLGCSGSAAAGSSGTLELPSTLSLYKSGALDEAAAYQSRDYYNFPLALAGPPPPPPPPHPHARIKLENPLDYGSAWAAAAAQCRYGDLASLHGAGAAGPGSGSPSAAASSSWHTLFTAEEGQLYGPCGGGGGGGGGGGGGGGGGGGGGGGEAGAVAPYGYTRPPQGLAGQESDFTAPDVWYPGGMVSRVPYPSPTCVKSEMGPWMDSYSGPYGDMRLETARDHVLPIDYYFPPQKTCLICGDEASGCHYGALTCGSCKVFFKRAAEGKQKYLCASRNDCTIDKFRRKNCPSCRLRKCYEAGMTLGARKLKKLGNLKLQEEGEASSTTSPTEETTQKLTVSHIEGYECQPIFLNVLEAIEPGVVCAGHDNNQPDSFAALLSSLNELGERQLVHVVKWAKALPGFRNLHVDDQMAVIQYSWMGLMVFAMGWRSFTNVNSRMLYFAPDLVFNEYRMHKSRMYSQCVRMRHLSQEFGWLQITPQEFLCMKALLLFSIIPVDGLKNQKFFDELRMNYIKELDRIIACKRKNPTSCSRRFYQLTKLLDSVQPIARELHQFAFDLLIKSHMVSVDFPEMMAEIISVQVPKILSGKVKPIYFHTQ
Format: binding. To be noted: 1.0E-06 M.

A further test addresses Kv1.5 (Homo sapiens, UniProt P22460). As to the kind of experiment: Ion channel selectivity patch clamp. Format: cell-based. The following applies: Voltage (+40 mV).
The target in a further test is T2, H3 (h) (Homo sapiens, UniProt Q9Y5N1).
T2 construct: host or cells: CHO cells
T2 sequence (Q9Y5N1 whole entry): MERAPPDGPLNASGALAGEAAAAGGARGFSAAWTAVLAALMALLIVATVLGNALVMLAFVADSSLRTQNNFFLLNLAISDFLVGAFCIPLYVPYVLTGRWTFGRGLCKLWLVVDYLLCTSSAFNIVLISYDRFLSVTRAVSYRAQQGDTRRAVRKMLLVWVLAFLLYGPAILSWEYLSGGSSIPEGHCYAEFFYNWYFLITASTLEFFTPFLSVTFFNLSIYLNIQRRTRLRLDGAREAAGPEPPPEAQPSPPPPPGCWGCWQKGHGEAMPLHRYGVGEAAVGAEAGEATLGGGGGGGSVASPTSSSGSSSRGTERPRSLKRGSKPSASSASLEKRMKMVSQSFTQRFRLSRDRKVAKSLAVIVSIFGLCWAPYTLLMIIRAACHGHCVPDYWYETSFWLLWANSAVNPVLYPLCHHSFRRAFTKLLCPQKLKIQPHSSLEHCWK
Format: binding.

The target of another test is T3, COX2 (h) (Homo sapiens, UniProt P35354).
T3 construct: Cerep (contract assay); host or cells: Sf9 cells
T3 sequence (P35354 18-604): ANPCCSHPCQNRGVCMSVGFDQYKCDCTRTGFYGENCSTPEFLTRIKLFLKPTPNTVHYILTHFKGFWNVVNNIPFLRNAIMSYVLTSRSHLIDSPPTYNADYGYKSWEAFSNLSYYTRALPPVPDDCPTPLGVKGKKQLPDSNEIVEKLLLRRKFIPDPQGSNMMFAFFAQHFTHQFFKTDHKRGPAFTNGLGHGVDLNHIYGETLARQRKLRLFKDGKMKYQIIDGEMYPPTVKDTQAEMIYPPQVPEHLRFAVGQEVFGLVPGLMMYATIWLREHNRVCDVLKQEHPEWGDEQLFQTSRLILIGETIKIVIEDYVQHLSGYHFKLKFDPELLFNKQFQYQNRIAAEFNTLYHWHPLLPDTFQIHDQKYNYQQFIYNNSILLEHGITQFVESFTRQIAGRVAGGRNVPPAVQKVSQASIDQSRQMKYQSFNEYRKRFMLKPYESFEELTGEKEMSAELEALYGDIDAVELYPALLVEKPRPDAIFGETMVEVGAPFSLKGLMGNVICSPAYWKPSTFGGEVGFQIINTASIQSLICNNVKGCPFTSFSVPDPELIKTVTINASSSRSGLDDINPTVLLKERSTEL
In words: enzyme assay. Format: biochemical. The following applies: 1.0E-06 M.

Another test deals with sst4 (h) (Homo sapiens, UniProt P31391). The test is classed as binding. The following applies: 1.0E-06 M.
sst4 (h), sequence (P31391 whole entry): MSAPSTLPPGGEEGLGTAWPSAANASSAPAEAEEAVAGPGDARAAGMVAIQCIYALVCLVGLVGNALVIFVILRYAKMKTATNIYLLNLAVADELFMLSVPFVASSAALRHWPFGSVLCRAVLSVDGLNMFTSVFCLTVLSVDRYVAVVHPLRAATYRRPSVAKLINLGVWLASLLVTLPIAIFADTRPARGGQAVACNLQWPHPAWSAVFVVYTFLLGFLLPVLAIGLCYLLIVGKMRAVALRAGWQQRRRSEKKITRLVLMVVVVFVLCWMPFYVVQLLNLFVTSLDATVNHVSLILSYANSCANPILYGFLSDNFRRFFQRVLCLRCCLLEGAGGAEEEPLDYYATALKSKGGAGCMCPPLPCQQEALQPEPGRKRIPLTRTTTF
The next test has as its target T4, CB2 (h) (Homo sapiens, UniProt P34972).
T4 construct: host or cells: CHO cells
Format: binding. The following applies: 1.0E-06 M.

Another test concerns the target T5, VPAC1 (VIP1) (h) (Homo sapiens, UniProt P32241).
T5 construct: host or cells: CHO cells
T5 sequence (P32241 31-457): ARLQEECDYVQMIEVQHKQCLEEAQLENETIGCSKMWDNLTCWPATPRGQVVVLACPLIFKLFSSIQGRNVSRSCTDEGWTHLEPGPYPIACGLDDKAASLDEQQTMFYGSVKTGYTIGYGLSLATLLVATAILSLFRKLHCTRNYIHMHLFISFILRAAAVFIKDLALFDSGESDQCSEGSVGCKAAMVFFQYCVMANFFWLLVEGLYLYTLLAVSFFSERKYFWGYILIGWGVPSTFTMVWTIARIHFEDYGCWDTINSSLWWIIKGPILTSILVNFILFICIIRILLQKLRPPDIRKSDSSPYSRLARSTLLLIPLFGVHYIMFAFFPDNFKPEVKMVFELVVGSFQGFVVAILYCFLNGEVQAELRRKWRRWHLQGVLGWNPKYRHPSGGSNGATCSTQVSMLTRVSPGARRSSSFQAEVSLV
The test is classed as binding. To be noted: 1.0E-06 M.

For test [1], the target named is carbonic anhydrase II (h) (Homo sapiens, UniProt P00918). In words: biochemical. To be noted: 1.0E-06 M.
For a further test, the target named is MMP-9 (h) (Homo sapiens, UniProt P14780). In words: biochemical. Format: biochemical. To be noted: 1.0E-06 M.
MMP-9 (h), sequence (P14780 94-707): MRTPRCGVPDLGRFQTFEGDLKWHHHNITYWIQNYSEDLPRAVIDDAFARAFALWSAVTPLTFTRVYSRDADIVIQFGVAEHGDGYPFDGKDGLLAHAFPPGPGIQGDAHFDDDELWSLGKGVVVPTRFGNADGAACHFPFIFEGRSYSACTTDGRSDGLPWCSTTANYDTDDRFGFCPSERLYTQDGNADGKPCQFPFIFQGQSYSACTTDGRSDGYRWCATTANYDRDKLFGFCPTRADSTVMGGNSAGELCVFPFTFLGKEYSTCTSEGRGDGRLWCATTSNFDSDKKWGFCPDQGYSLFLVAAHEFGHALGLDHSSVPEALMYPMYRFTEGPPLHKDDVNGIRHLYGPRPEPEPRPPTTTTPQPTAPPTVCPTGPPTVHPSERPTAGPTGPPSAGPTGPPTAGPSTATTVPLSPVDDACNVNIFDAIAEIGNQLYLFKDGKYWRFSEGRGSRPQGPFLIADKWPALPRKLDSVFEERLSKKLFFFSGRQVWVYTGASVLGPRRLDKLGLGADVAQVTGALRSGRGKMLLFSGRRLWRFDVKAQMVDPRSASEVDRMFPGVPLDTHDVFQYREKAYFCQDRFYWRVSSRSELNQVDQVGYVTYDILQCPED
For the next test, the target named is 5-HT7 (h) (Homo sapiens, UniProt P34969). As to the kind of experiment: biochemical.
5-HT7 (h), sequence (P34969 whole entry): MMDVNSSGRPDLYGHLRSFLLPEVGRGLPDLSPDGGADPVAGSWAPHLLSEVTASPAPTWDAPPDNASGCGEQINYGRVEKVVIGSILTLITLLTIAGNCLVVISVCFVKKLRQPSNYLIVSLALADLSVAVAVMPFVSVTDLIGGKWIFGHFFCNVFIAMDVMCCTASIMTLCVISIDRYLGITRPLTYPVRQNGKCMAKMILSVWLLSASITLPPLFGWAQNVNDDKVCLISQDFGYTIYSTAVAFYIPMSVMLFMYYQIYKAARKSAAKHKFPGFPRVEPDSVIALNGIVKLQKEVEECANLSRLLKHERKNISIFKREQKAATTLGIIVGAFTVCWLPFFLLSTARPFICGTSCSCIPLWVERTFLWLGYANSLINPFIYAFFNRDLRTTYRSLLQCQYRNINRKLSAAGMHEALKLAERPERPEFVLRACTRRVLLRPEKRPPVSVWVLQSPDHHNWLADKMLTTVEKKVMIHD
The next test addresses β2 (h) (Homo sapiens, UniProt P07550). The test is classed as binding. The following applies: 1.0E-06 M.

T4 sequence (P34972 whole entry): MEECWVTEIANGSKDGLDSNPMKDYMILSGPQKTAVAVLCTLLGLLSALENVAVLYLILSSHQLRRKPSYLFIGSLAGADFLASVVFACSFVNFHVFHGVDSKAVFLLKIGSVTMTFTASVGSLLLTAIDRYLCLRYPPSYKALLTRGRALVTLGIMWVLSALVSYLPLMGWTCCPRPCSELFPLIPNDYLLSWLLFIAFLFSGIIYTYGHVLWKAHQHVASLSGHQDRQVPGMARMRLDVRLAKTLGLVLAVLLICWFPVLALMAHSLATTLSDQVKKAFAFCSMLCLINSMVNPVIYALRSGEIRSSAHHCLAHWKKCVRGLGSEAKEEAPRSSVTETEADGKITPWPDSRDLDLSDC
β2 (h), sequence (P07550 whole entry): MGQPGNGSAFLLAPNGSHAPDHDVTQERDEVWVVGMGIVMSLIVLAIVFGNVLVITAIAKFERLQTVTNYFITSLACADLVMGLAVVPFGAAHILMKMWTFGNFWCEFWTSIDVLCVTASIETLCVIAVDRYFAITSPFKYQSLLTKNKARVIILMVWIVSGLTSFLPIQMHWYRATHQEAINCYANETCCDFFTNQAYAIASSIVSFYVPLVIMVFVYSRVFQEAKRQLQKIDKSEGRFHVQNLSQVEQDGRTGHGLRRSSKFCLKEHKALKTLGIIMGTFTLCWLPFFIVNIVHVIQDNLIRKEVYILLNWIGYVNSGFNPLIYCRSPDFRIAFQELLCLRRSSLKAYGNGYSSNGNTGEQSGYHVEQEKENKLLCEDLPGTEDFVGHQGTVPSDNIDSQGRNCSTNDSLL
Kv1.5, sequence (P22460 whole entry): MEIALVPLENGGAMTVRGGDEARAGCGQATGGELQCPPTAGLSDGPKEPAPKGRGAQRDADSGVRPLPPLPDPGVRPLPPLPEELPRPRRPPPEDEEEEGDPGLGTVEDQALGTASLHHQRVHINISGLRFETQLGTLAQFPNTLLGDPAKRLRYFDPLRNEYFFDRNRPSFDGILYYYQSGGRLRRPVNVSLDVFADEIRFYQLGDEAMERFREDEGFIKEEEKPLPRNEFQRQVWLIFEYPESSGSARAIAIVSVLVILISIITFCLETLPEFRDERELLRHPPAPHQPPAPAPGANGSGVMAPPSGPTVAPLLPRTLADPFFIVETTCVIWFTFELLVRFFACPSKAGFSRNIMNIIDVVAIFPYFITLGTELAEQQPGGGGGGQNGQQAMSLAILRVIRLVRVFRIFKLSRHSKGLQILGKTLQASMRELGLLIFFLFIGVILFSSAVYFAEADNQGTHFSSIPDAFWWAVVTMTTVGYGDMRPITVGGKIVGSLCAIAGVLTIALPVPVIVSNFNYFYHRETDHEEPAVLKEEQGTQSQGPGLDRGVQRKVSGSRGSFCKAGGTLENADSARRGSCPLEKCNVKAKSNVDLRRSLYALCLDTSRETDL

The term inhibition denotes the change of the read-out against control, counted positive when it falls. A word on the IC50: it is the midpoint of a concentration-inhibition curve. For `Cn1c(=O)n(CCCO)c(=O)c2c1nc(Oc1cccc(Cl)c1)n2Cc1ccc(Cl)cc1` [HC-070], the results for the inhibition at 1 µM on AR (h) (read-out: % Inhibition 1st), on AR (h) (read-out: % Inhibition 2nd) and at AR (h) (read-out: % Inhibition Mean) were 11.1%, 3.2% and 7.1%, respectively. Further, on Kv1.5, the 50% inhibitory concentration (IC50) was > 1900 nM.
Take `Cn1c(=O)n(CCCO)c(=O)c2c1nc(Oc1cccc(OC(F)(F)F)c1)n2Cc1ccc(Cl)cc1` [HC-608]: the inhibition at 1 µM on H3 (h) (1.0E-06 M, read-out: % Inhibition 2nd) is -0.8%; on H3 (h) (1.0E-06 M, read-out: % Inhibition Mean) it was -13.4%; on H3 (h) (read-out: % Inhibition 1st), -25.9%; at COX2 (h) (read-out: % Inhibition 1st) it was -5.6%; on COX2 (h) (read-out: % Inhibition 2nd), 11.8%; on COX2 (h) (read-out: % Inhibition Mean), 3.1%. Besides, the inhibition at 1 µM at sst4 (h) (read-out: % Inhibition 1st) is -27%; at sst4 (h) (read-out: % Inhibition 2nd), 9.5%; on sst4 (h) (read-out: % Inhibition Mean), -8.8%; at CB2 (h) (read-out: % Inhibition 1st), 16.6%; on CB2 (h) (read-out: % Inhibition 2nd) it was 25.1%; at CB2 (h) (read-out: % Inhibition Mean), 20.9%. Besides, the inhibition at 1 µM at VPAC1 (VIP1) (h) (read-out: % Inhibition 1st) was -9%; on VPAC1 (VIP1) (h) (read-out: % Inhibition 2nd) it was -8.4%; at VPAC1 (VIP1) (h) (read-out: % Inhibition Mean) it was -8.7%; in test [1] (read-out: % Inhibition 1st) it was -0.9%; in test [1] (read-out: % Inhibition 2nd), 0.2%; in test [1] (read-out: % Inhibition Mean) it was -0.4%. The inhibition at 1 µM is 8.7% on MMP-9 (h) (read-out: % Inhibition 1st); 17.2% on MMP-9 (h) (read-out: % Inhibition 2nd); 13% on MMP-9 (h) (read-out: % Inhibition Mean); 12.1% on 5-HT7 (h) (read-out: % Inhibition 1st); 10.9% on 5-HT7 (h) (read-out: % Inhibition 2nd); 11.5% on 5-HT7 (h) (read-out: % Inhibition Mean). Further, the inhibition at 1 µM on β2 (h) (read-out: % Inhibition 1st) is -1.9%; at β2 (h) (read-out: % Inhibition 2nd), 0.5%; at β2 (h) (read-out: % Inhibition Mean) it was -0.7%.
